We go through 1 compound from patent US20250049705A1, “PHARMACEUTICAL COMPOSITION COMPRISING TIGECYCLINE” (ZAMBON S.p.A., priority 2021, published 2025).

The nature of data set [1]: Storage of a solution of tigecycline (degradation in aqueous solution). Type of data set: physicochemical. The conditions noted are these: degradation by oxidation and epimerization; 24 hours at 5° C., 25° C. and 40° C.
A further data set has as its system Mycobacterium abscessus. The data set is described as follows: Anti-mycobacterial activity in infected THP-1 macrophages (CFU of cell lysates). Type of data set: cell-based. How it is done: Modification of the Dulbecco Eagle medium (Cellgro 15-017-cv) supplemented with: • Heat-inactivated fetal calf serum (Atlas Biologicals, Fort Collins, CO, F-0500-A) (10%) • LCM (10%)
Medium conditioned by L929: L-929 (CCL-1) (ATCC) cells secrete the macrophage colony-stimulating factor (M-CSF), the cytokine that differentiates bone marrow macrophages/monocyte progenitors into a homogeneous population of mature macrophages. They are seeded at 4.7×10^5 cells in 55 ml of DMEM+10% of fetal calf serum in a ball of 75 cm2. Cells are left to grow for 3 days and then the supernatant is collected and filtered through a 0.45 μm filter, aliquoted and frozen at −20° C.
The cell-free filtrate is used in DMEM media. • L-glutamine (Sigma G-7513) (2 mM) • HEPES buffer (Sigma H-0887) (10 mM) Antibiotic/antimycotic (Sigma A-9909) (1×) • non-essential amino acids MEM (Sigma M-7145) (1×) • 2-mercaptoethanol (Sigma M-6250) (50 nM)
THP-1 cells were expanded for 2 weeks.
Complete DMEM media free of antibiotic/antimycotic were not changed during the 3-day test.
On day 0, the media were removed from the cells and replaced with 0.2 mL of antibiotic/antimycotic-free DMEM containing Mycobacterium abscessus at a ratio of 10 bacteria per macrophage.
The tissue culture plates were placed inside closed Ziploc bags and transported to the incubator. Once inside the incubator, the bags were opened. The cells were incubated with the bacteria for 2 hours.
After the infection, the extracellular bacteria were removed by washing each well once with PBS. Then 2 mL of complete DMEM medium free of antibiotics/antimycotics and various drug concentrations were added.
Each drug concentration was tested in triplicate. Culture plates were incubated with antibiotics at 37° C.+5% CO2 for 3 days.

As to `CN(C)c1cc(NC(=O)CNC(C)(C)C)c(O)c2c1C[C@H]1C[C@H]3[C@H](N(C)C)C(O)=C(C(N)=O)C(=O)[C@@]3(O)C(O)=C1C2=O` [Pure Tigecycline, tigecycline], the “stability in aqueous solution” value in data set [1] is “extremely unstable”. Besides, the “Day 1 CFU” value with Mycobacterium abscessus (pure tigecycline 1 μg/ml) was 287 CFU; with Mycobacterium abscessus (pure tigecycline 2 μg/ml), 263 CFU; in the data set on Mycobacterium abscessus (pure tigecycline 4 μg/ml) it was 427 CFU; in the data set with Mycobacterium abscessus (pure tigecycline 8 μg/ml), 303 CFU; in the data set with Mycobacterium abscessus (pure tigecycline 16 μg/ml), 333 CFU; with Mycobacterium abscessus (pure tigecycline 24 μg/ml) it was 287 CFU. Moreover, the “Day 2 CFU” value with Mycobacterium abscessus (pure tigecycline 1 μg/ml) worked out at 2067 CFU; with Mycobacterium abscessus (pure tigecycline 2 μg/ml), 203 CFU; with Mycobacterium abscessus (pure tigecycline 4 μg/ml), 123 CFU; with Mycobacterium abscessus (pure tigecycline 8 μg/ml) it was 203 CFU; in the data set with Mycobacterium abscessus (pure tigecycline 16 μg/ml), 203 CFU; in the data set with Mycobacterium abscessus (pure tigecycline 24 μg/ml) it was 90 CFU. Further, the “Day 3 CFU” value was 2667 CFU in the data set on Mycobacterium abscessus (pure tigecycline 1 μg/ml); 1743 CFU in the data set on Mycobacterium abscessus (pure tigecycline 2 μg/ml); 267 CFU in the data set with Mycobacterium abscessus (pure tigecycline 4 μg/ml); 220 CFU in the data set on Mycobacterium abscessus (pure tigecycline 8 μg/ml); 153 CFU in the data set on Mycobacterium abscessus (pure tigecycline 16 μg/ml); 143 CFU with Mycobacterium abscessus (pure tigecycline 24 μg/ml).
